{"source": "patent US10143638B2", "about": "“Method of treating skin with ingenol mebutate” (LEO Laboratories Limited, priority 2009, dated 2018)", "format_in_all_cases": "cell-based, human", "key": {"dermal fibroblasts [1]": {"tested_on": "dermal fibroblasts", "assay": "Hyaluronan synthesis by dermal fibroblasts (Hyaluronic Acid Quantitative Test Kit)", "conditions": "TGF-β1 10 ng/ml, absence of PEP005, 24 h", "description": "(§1) A normal adult skin biopsy (6 mm) was obtained (n=1), with informed consent, from an individual attending the Oral Surgery Clinic, School of Dentistry, Wales College of Medicine, Cardiff. Following the application of a local anaesthetic, the dermal biopsy was collected and adult dermal fibroblast cultures established by single cell suspension technique, following enzymic degradation of the specimen. This technique has previously been reliably used to establish viable primary cultures of both oral and dermal fibroblasts in vitro (Cook et al, 2000; Stephens et al, 2001; 2003). Dermal fibroblasts were cultured in Fibroblast-Serum Containing Medium, containing Dulbecco's Modified Eagle's Medium (DMEM), supplemented with L-glutamine (2 mM), antibiotics (100 U/ml) penicillin G sodium, […] streptomycin sulphate and 0.25 μg/ml amphotericin B) and 10% foetal calf serum (all purchased from Invitrogen Ltd., Paisley, U.K.). Dermal fibroblast cultures were maintained at 37° C., in a 5% CO2/95% air atmosphere, with the culture medium being changed every 2-3 days. Dermal fibroblasts were used between) passage 7-17, for all experiments.\nFollowing trypsinization, dermal fibroblasts were seeded in 24-well tissue culture plates in PEP005-free, Fibroblast-Serum Containing Medium (1 ml), at a cell density of 2.5×10^4 cell/well. Dermal fibroblasts were maintained at 37° C., in a 5% CO2/95% air atmosphere, for 48 h, prior to maintenance in serum-free, Fibroblast-Serum Containing Medium (1 ml), for a further 48 h. At this stage, the serum-free, culture medium was replaced with Fibroblast-Serum Containing Medium (600 μl), containing 0 μg/ml, 0.01 μg/ml, 0.1 μg/ml, 1 μg/ml, 10 μg/ml or 100 μg/ml PEP005, +/−TGF-β1 (10 ng/ml) (three culture wells per PEP005 concentration). A control was also established, consisting of cells in serum-free, Fibroblast-Serum Containing Medium, containing 1% DMSO. The dermal fibroblasts were maintained at 37° C., in a 5% CO2/95% air atmosphere, for 24 h or 72 h, prior to culture medium removal. Hyaluronan synthesis in the collected culture media was quantified, using a Hyaluronic Acid Quantitative Test Kit (Corgenix U.K. Ltd., Cambridgeshire, U.K.), which utilizes a naturally occurring bovine binding protein to hyaluronan. Supernatants were assayed, as per manufacturer's instructions, and optical density measured using a spectrophotometer at 450 nm. Hyaluronan concentrations were determined by comparing the absorbance of the sample against a reference curve prepared from the reagent blank and standards. Each experiment was performed on three separate occasions."}, "dermal fibroblasts [2]": {"tested_on": "dermal fibroblasts", "assay": "Hyaluronan pericellular coat formation by dermal fibroblasts (particle exclusion assay)", "conditions": "TGF-β1 10 ng/ml, absence of PEP005, 24 h", "description": "as §1\nFollowing trypsinization, dermal fibroblasts were seeded in 53 mm bacteriological grade culture dishes (VWR International Ltd., Leicestershire, U.K.), in PEP005-free, Fibroblast-Serum Containing Medium (2 ml), at a density of 7×10^4 cell/dish. Dermal fibroblasts were maintained at 37° C., in a 5% CO2/95% air atmosphere, overnight, prior to washing in PBS (2×2 ml) and maintenance in serum-free, Fibroblast-Serum Containing Medium (2 ml), containing 0 μg/ml, 0.01 μg/ml, 0.1 μg/ml, 1 μg/ml, 10 μg/ml or 100 μg/ml PEP005, +/−TGF-β1 (10 ng/ml) (three culture dishes per PEP005 concentration). A control was also established, consisting of cells in serum-free, Fibroblast-Serum Containing Medium, containing 1% DMSO. The dermal fibroblasts were maintained at 37° C., in a 5% CO2/95% air atmosphere, for 24 h or 72 h. At 24 h and 72 h, the culture dishes were treated with formalized horse blood erythrocytes (TCS Biosciences Ltd., Buckinghamshire, U.K.). The formalized horse blood erythrocytes were washed in PBS, to remove sodium azide (3×20 ml) and centrifuged at 100 g/7 min, at 4° C. The erythrocyte cell pellet obtained was re-suspended in serum-free, Fibroblast-Serum Containing Medium, to a density of 1×10^8 cells/ml. Aliquots of the erythrocyte cell suspension (500 μl) were supplemented to each culture dish and the dishes agitated, prior to maintenance at 37° C., in a 5% CO2/95% air atmosphere, for 15 min. Zones of erythrocyte exclusion were visualized by light microscopy, using a Zeiss Axiovery 135 Inverted Microscope (Carl Zeiss Ltd., Hertfordshire, U.K.), with a Hamamatsun C5985 chilled CCD camera (Hamamatsu Photonics U.K. Ltd., Hertfordshire, U.K.) and using Openlab Software 3.0.8 (Improvision Ltd., Warwickshire, U.K.). Each experiment was performed on three separate occasions."}, "HAS1": {"tested_on": "HAS1", "assay": "HAS1 gene expression by dermal fibroblasts (qPCR)", "conditions": "TGF-β1 10 ng/ml", "description": "as §1\n(§2) Following trypsinization, dermal fibroblasts were seeded in 24-well tissue culture plates, in PEP005-free, Fibroblast-Serum Containing Medium (1 ml), at a cell density of 2.5×10^4 cell/well. Dermal fibroblasts were maintained at 37° C., in a 5% CO2/95% air atmosphere, overnight. At this stage, the culture medium was replaced with Fibroblast-Serum Containing Medium (600 μl), containing 0 μg/ml, 0.01 μg/ml, 0.1 μg/ml, 1 μg/ml, 10 μg/ml or 100 μg/ml PEP005, +/−TGF-β1 (10 ng/ml) (three culture wells per PEP005 concentration). A control was also established, consisting of cells in Fibroblast-Serum Containing Medium, containing 1% DMSO. The dermal fibroblasts were maintained at 37° C., in a 5% CO2/95% air atmosphere, for 24 h or 72 h, prior to washing in PBS (3×1 ml) and Trizol® Reagent (250 μl) added to the cells, for 5 min at room temperature, to induce cell lysis. RNA was extracted by the phenol-chloroform method, as described above, while a cDNA library was generated via random hexamer RT, as described above. RNA (1 μg) was added to 100 µM random hexamer (1 μl), 5×RT Buffer (4 μl), 2.5 mM Deoxynucleoside Triphosphates (dNTPs, 5 μl), 2 μl DTT and Nuclease-Free Water, were added to the reaction (total volume, 20 μl). To denature the RNA, reaction tubes were placed in a GeneAmp PCR System 9700 (Applied Biosystems, Cheshire, U.K.) and heated for 5 min/95° C., prior to cooling to 4° C. Superscript (1 μl) and RNAsin® Ribonuclease Inhibitor (1 μl, Promega, Hampshire, U.K.) were added to each tube, and the tubes subjected to […] at 20° C. for 10 min, 42° C. for 1 h and 95° C. for 5 min, prior to storage at 4° C., until required. As a negative control, RT was also performed, with Nuclease-Free Water replacing the RNA sample.\n(§3) qPCR was performed, as described above, with the probe and primers for HAS1, HAS2 and HAS3 (target genes) and the 18s ribosomal RNA (reference gene), designed and supplied by Applied Biosystems. PCR was performed in a final volume of 20 μl/sample, with each reaction mix consisting of cDNA (1 μl), target gene primers and probe (1 μl), Taqman® FAST Universal PCR Master Mix (10 μl, Applied Biosystems), and Nuclease-Free Water (8 μl). PCR amplification was performed, using an initial cycle of 95° C. for 1 s, followed by 40 cycles of 60° C. for 20 s. A cDNA-free control was also included. Again, the comparative CT method was used for relative quantification of gene expression. Each experiment was performed on three separate occasions."}, "HAS2": {"tested_on": "HAS2", "assay": "HAS2 gene expression by dermal fibroblasts (qPCR)", "conditions": "TGF-β1 10 ng/ml", "description": "as §1, §2, §3"}, "HAS3": {"tested_on": "HAS3", "assay": "HAS3 gene expression by dermal fibroblasts (qPCR)", "conditions": "TGF-β1 10 ng/ml", "description": "as §1, §2, §3"}}, "data": [{"substance": "TGF-β1: TGF-β1 (10 ng/ml) added to dermal fibroblast cultures with or without PEP005 [reference compound]", "values": [{"measurement": "hyaluronan synthesis", "setting": "dermal fibroblasts [1]", "result": "slight stimulation"}, {"measurement": "hyaluronan pericellular coat formation", "setting": "dermal fibroblasts [2]", "result": "slight increase"}, {"measurement": "HAS1 expression", "setting": "HAS1; absence of PEP005, 24 h, compared to control fibroblasts (p<0.001)", "result": "major up-regulation"}, {"measurement": "HAS1 expression", "setting": "HAS1; absence of PEP005, 72 h, compared to control fibroblasts", "result": "up-regulation"}, {"measurement": "HAS2 expression", "setting": "HAS2; absence of PEP005, 24 h", "result": "little effect"}, {"measurement": "HAS2 expression", "setting": "HAS2; absence of PEP005, 72 h (p>0.05)", "result": "minimal effects"}, {"measurement": "HAS3 expression", "setting": "HAS3; absence of PEP005, 24 h (p<0.01)", "result": "inhibitory effect"}, {"measurement": "HAS3 expression", "setting": "HAS3; absence of PEP005, 72 h", "result": "inhibitory effect"}]}]}
